# Measurements published in US20260176249A1, “PROTEIN KINASE INHIBITOR, PREPARATION METHOD THEREFOR, AND APPLICATION THEREOF” (SHANDONG LUYE PHARMACEUTICAL CO., LTD., priority 2021, published 2026).
# Tests used:
# [1] = Permeability and efflux transporter substrate evaluation in Caco-2 cells; type: in vitro ADME; parameters: Papp A→B at 120 min / Papp B→A at 120 min / efflux ratio at 120 min / Papp at 120 min: dose or concentration left out as unconfirmed; conditions: human; for Papp at 120 min: Caco-2, pH 7.4, read-out: Classification Permeability; for Papp A→B at 120 min / Papp B→A at 120 min: pH 7.4, pH 7.40; for Papp A→B at 120 min: Caco-2, apical to basolateral; for Papp B→A at 120 min: Caco-2, basolateral to apical
# Description: (§1) The cells were cultured in a carbon dioxide incubator for 21-28 days before being used for transport experiments. During this period, the culture medium was changed every four to five days.
# (§2) This project uses Hank's balanced salt buffer (pH 7.40±0.05) containing 10 mM HEPES as the transport buffer. The culture medium was removed from the culture plate and the cells were washed twice with preheated transport buffer (approximately 75 μL and 40 mL of transport buffer for each apical well and basolateral receiver plate respectively). The donor solution and receiver solution were added to the corresponding cell plate wells (75 and 250 μL for each apical and basolateral well respectively), and the bidirectional transport experiment was started (apical to basolateral (A-B) and basolateral to apical (B-A)). The test concentration of the test substance was […], and two replicate wells were made for each dosing concentration. The test concentration of Digoxin was […], with dosing bidirectionally; the test concentrations of nadolol and metoprolol were both […], and they were dosed in one direction (A-B direction), and two replicate wells were made for each of the three control compounds.
# (§3) The initial donor solution is the TO sample. After adding the sample, it was mixed with the transport buffer and stop solution in a certain proportion.
# (§4) All samples were vortexed, and then centrifuged at 3220×g for 20 min at 20° C. A proper volume of supernatant was transferred to a sample assay plate, and the sample was stored at 2-8° C. if it was not analyzed immediately after the plate was sealed, and LC MS/MS method was used for analysis.
# (§5) The Lucifer Yellow Rejection Assay was used to test the integrity of the Caco-2 cell layer.
# (§6) The following formulas were used to calculate the apparent permeability coefficient (Papp, cm/s), efflux ratio (ER), and solution recovery (%) (% Solution Recovery).
# (§7) [formula] [formula] [formula] • VR is the volume of the receiver side solution (side A is 0.075 mL, side B is 0.25 mL); Area is the relative surface area of the cell monolayer (0.0804 cm^2); Time is the incubation time (7200 s); C0 is the initial concentration (nM) of the test substance at the donor side or the peak area ratio of the control compound; VD is the volume of the donor side (side A is 0.075 mL, side B is 0.25 mL); CD and CR are the final concentration (nM) of the test substance at the donor side and the receiver side respectively or the peak area ratio of the control compound; • Lucifer yellow transmittance rate (% Lucifer Yellow) is calculated using the following formula:
# (§8) [formula] • RFUApical and RFUBasolateral are the relative fluorescence intensity of lucifer yellow at the apical and basolateral sides respectively. VApical and VBasolateral are the sample loading volumes at the apical and basolateral sides respectively (0.075 and 0.25 mL respectively).
# Caco-2 cells = test: as above; type: in vitro ADME; parameters: Papp A→B at 120 min / Papp B→A at 120 min / efflux ratio at 120 min / Papp at 120 min: dose or concentration left out as unconfirmed; conditions: Caco-2
# Description: as §1, §2, §3, §4, §5, §6, §7, §8
# HCT116 cells [2] = test: In vivo pharmacodynamic study of compound 1 in HCT116 tumor-bearing mice; parameters: species or system Balb/C Nude mice; conditions: 20 mg/kg once a day by gavage, vs sham group
# Text: Balb/C Nude mice, SPF grade, male, weighing 18-20 g, were purchased from Jiangsu Gempharmatech Co., Ltd.
# HCT116 cells were purchased from ATCC.
# Matrigel Matrix, Cat. No. 354248, was purchased from Becton, Dickinson and Company.
# Kolliphor® HS 15, Cat. No. 42966, was purchased from Sigma-Aldrich.
# (§9) a. Establishment of tumor-bearing mouse model: HCT116 cells in the logarithmic growth phase were taken and cultured, the cells were collected and counted, and then subcutaneously inoculated into Balb/C Nude mice at 1×10^6/mouse. The tumor volume and body weight of the mice were measured regularly. 7 days after inoculation, mice with tumor volume of 150 mm3 were randomly divided into groups and treated with corresponding drugs.
# b. […] The administration was performed once a day by gavage for 21 consecutive days, and the tumor volume and body weight of the mice were measured regularly.
# (§10) 3. Data processing: All data were organized in EXCEL, and One-way ANOVA analysis and drawing were performed using GraphPad Prism 8.0 software. Statistical significance was achieved when p<0.05.
# [3] = Metabolic stability in mouse liver microsomes; type: in vitro ADME
# Description: (§11) a. Preparation of phosphate buffer: The phosphate buffer powder was dissolved in 100 mL of pure water to prepare a phosphate buffer solution with a pH of 7.4 and a concentration of 100 mM, which was stored in a 4° C. refrigerator for later use.
# (§12) b. All samples as well as the reference testosterone were dissolved in DMSO to obtain a 10 mM stock solution. The 10 mM stock solution was diluted to 100 μM with acetonitrile to obtain a working solution for later use.
# (§13) c. Preparation of liver microsome working solution: Each of the mouse, rat and human liver microsome stock solutions (at concentration of 20 mg/mL) was taken and diluted to 0.56 mg/mL with 100 mM phosphate buffer solution to obtain the liver microsome working solution.
# (§14) d. Preparation of solution: An appropriate amount of MgCl2 was weighed and used to prepare a MgCl2 solution at a concentration of 60 mM using 100 mM phosphate buffer solution. An appropriate amount of NADPH was weighed and used to prepare a NADPH solution at a concentration of 20 mM using 100 mM phosphate buffer solution. An equal volume of 60 mM MgCl2 solution was added to prepare an NADPH working solution containing 10 mM NADPH and 30 mM MgCl2. An acetonitrile solution containing 20 ng/mL tolbutamide was prepared as the stop solution.
# (§15) e. Liver microsome incubation: 2 μL of each compound and the positive drug testosterone working solution were added to 178 μL of liver microsome working solution (0.56 mg/mL), mixed gently, and pre-incubated in a vibrating constant temperature water bath pot at 37° C. for 10 min. After adding 20 μL of NADPH working solution, the mixture was placed in a vibrating constant temperature water bath pot at 37° C. and timed incubation was started for 5, 10, 20, 30 and 60 min.
# (§16) f. Stopping reaction: After the corresponding time of incubation, 400 μL of stop solution was added to stop the reaction, and then the sample was immediately shaken for 1 min. The sample was centrifuged at 13500 rpm for 10 min at 10° C. After centrifugation, the supernatant was removed, diluted with water according to the needs of each compound, and analyzed by LC-MS. For the 0-minute sample, the stop solution was first added and mixed evenly with the liver microsomes, and then the NADPH working solution was added. For the negative control sample, 20 μL of 30 mM MgCl2 solution was added instead of the NADPH working solution.
# (§17) T1/2 and CLint(mic) were calculated by the following formula.
# (§18) [formula] [formula] • CLint(mic)=0.693/T1/2/liver microsomal protein concentration during incubation (mg/mL) • CLint(ver)=CLint(mic)*liver microsomal protein (mg)/liver weight (g)*liver weight to body weight ratio
# (§19) Liver microsomal protein (mg)/liver weight (g): the value is 45 in both animal and human species.
# (§20) Liver weight to body weight ratio: the parameters for mice, rats and humans are 88, 40 and 20 g/kg respectively.
# [4] = Metabolic stability in rat liver microsomes; type: in vitro ADME
# Description: as §11, §12, §13, §14, §15, §16, §17, §18, §19, §20
# [5] = Metabolic stability in human liver microsomes; type: in vitro ADME
# Description: as §11, §12, §13, §14, §15, §16, §17, §18, §19, §20
# HCT116 cells [6] = test: In vivo pharmacodynamic study of compound 18 in HCT116 tumor-bearing mice; parameters: species or system Balb/C Nude mice; conditions: 10 mg/kg once a day by gavage
# Description: as §9, §10
# 1. Experiment materials: Same as Test example 5.
# a. Establishment of tumor-bearing mouse model: Same as Test example 5.
# b. […] The administration was performed once a day by gavage for 7 consecutive days, and the tumor volume and body weight of the mice were measured regularly.
# 3. Data processing: Same as Test example 5.
smiles,measurement,setting,value
CN1CCN(c2ccc(OC(F)(F)F)c(Nc3ncc4ccc5c(C(N)=O)nn(CCO)c5c4n3)c2)CC1 [Compound 1],Papp at 120 min,[1],0.5 to 2.5 ×10⁻⁶ cm/s
same,Papp A→B at 120 min,[1],0.965 ×10⁻⁶ cm/s
same,Papp B→A at 120 min,[1],20.8 ×10⁻⁶ cm/s
same,Classification Efflux transporter substrate,Caco-2 cells,Likely (ERa ≥ 2.00)
same,tumor inhibition rate,HCT116 cells [2]; 11 days,82.0%
same,tumor inhibition rate,HCT116 cells [2]; 16 days,86.5%
same,tumor inhibition rate,HCT116 cells [2]; 21 days,88.3%
CN1CCN(c2ccc(OC(F)(F)F)c(Nc3ncc4ccc5c(C(N)=O)nn(CCF)c5c4n3)c2)CC1 [Compound 18],Papp at 120 min,[1],0.5 to 2.5 ×10⁻⁶ cm/s
same,Papp A→B at 120 min,[1],2.03 ×10⁻⁶ cm/s
same,Papp B→A at 120 min,[1],3.36 ×10⁻⁶ cm/s
same,Classification Efflux transporter substrate,Caco-2 cells,Very unlikely or not (ERa < 2.00)
same,60 min remaining amount,[3],4.32%
same,Clearance rate,[3],High
same,CLint scaled at 1 µM,"[3]; mouse, pH 7.4",409 mL/min/kg
same,half-life at 1 µM,"[3]; mouse, pH 7.4",13.4 min
same,microsomal CLint at 1 µM,"[3]; mouse, pH 7.4, read-out: CLint(mic)",103 µL/min/mg
same,60 min remaining amount,[4],2.74%
same,Clearance rate,[4],High
same,CLint scaled at 1 µM,"[4]; rat, pH 7.4",505 mL/min/kg
same,half-life at 1 µM,"[4]; rat, pH 7.4",4.94 min
same,microsomal CLint at 1 µM,"[4]; rat, pH 7.4, read-out: CLint(mic)",281 µL/min/mg
same,60 min remaining amount,[5],7.83%
same,Clearance rate,[5],High
same,CLint scaled at 1 µM,"[5]; human, pH 7.4",78.7 mL/min/kg
same,half-life at 1 µM,"[5]; human, pH 7.4",15.9 min
same,microsomal CLint at 1 µM,"[5]; human, pH 7.4, read-out: CLint(mic)",87.4 µL/min/mg
same,body weight decrease compared to before administration,HCT116 cells [6]; 5 days,7.6%
same,body weight decrease compared to before administration,HCT116 cells [6]; 7 days,16.1%
same,tumor inhibition rate,"HCT116 cells [6]; 7 days, vs control group",70.9%
